Patent publication US20130323165A1, “Magnetic Nanoplatforms for Theranostic and Multi-Modal Imaging Applications” (NORTHEASTERN UNIVERSITY, priority 2010, published 2013)
Counter-ions that a name gives are not always drawn.

Columns and labels:
[1] = Drug loading into MAG-C cationic liposomes by HPLC; format: physicochemical; settings: 3 mol % drug
Description: The influence of MAG-C on the efficiency of loading chemotherapeutic agents (hydrophilic and lipophilic) in cationic liposomes was evaluated by HPLC. […] The inclusion of PEG in MAG-C cationic liposomes improved incorporation of vinblastine sulfate from […]. We also evaluated the effect of MAG-C on the incorporation efficiency of the hydrophilic drug, dacarbazine at 3 mol %.

[2] = system: B16-F10 melanoma metastasis; experiment: Tumor metastases (melanin pigmentation, pleural cavity)
[3] = system: B16-F10 melanoma tumor; settings: 1.35 mg/kg
[4] = cationic liposomes without MAG-C

SMILES | incorporation (loading) efficiency ([1]; MAG-C cationic liposomes with PEG included) | incorporation (loading) efficiency ([1]; cationic liposomes with 0.5 mg/ml MAG-C (SPION)) | incorporation (loading) efficiency [1, 4] | incorporation (loading) efficiency ([1]; cationic liposomes with 2.5 mg/ml MAG-C (SPION)) | number of tumor nodules in the livers ([2]; compared to the saline control) | mice with evidence of metastasis within the pleural cavity ([2]; free drug) | tumor volumes compared to the untreated control group [3]
COc1cc([C@@H]2c3cc4c(cc3[C@@H](O[C@@H]3O[C@@H]5CO[C@@H](C)O[C@H]5[C@H](O)[C@H]3O)[C@H]3COC(=O)[C@H]23)OCO4)cc(OC)c1O [etoposide] | 7873.73% | did not alter the incorporation efficiency | 7876.03% |  |  |  | 
CC[C@]1(O)C[C@@H]2CN(CCc3c([nH]c4ccccc34)[C@@](C(=O)OC)(c3cc4c(cc3OC)N(C)[C@H]3[C@@](O)(C(=O)OC)[C@H](OC(C)=O)[C@]5(CC)C=CCN6CC[C@]43[C@@H]65)C2)C1 [vinblastine sulfate] |  |  | 3273.6% | no further decrease was observed | less | 5/5 | no significant difference in the tumor volumes
